# From article PMC4585737, “Lipoproteins/peptides are sepsis-inducing toxins from bacteria that can be neutralized by synthetic anti-endotoxin peptides” (Scientific Reports, 2015)
# “Also recorded” adds a separate entry of the source.
# Tests used:
# [1] = system: Balb/C mice; assay: Lethal toxemia in galactosamine-sensitized mice; type: in vivo, mouse; conditions: 200 μg/mouse peptide i.p. after 4 μg FSL-1 + D-galactosamine 18 mg/mouse; n = 6; up to 4 days; Kaplan-Meier, p < 0.05
# Protocol: (§1) Seven-week-old female SPF-free Balb/C mice of 20 g of body weight, approximately, were purchased from Harlan Spain (Harlan Interfauna Iberica S.A., Barcelona, Spain) and randomly distributed in experimental groups (at least 4 animals per group except for the determination of lethal dose (n = 3)). Sample size was calculated based on previous results with the same animal model. Animals were housed in individually ventilated cages (5 mice per cage) bedded with hardwood bedding. Mice were provided ad libitum access to feed and water and lighting was adjusted to a 14-hour light/10-hour dark cycle. During the experiments, the condition of the animals was monitored daily every 4 hours and animals displaying persistent motor ataxia and hunched posture were euthanized.
# To determine the lethal dose of FSL-1 in mice, the method of Galanos and collaborators[48] was followed with some modifications. Briefly, animals were intraperitoneally inoculated with increasing amounts of FSL-1 (50 ng, 500 ng, 5 μg and 50 μg) supplemented with 18 mg of D-galactosamine in a final volume of 200 μl of pyrogen-free saline. Galactosamine is known to sensitize mice to pro-inflammatory compounds such as LPS, thus making it possible to use lower amounts of the stimulatory drug[46]. The ability of Aspidasept® to protect mice from FSL-1 dependent lethal toxemia was assessed by co-administering FSL-1 (4 μg/mouse) with D-galactosamine (18 mg/mouse) intraperitoneally.
# Results were globally analyzed by means of a Kaplan-Meier survival analysis (SPSS 15.0). When the survival plots were parallel, the data were compared by the log-rank test, whereas the Breslow-Gehan-Wilcoxon test was applied when the plots intersected.
# [2] = system: human macrophages; assay: TNFα production in human macrophages stimulated by LPS or LP, and its inhibition by SALP; type: cell-based
# Protocol: In some stimulation experiments, also macrophages were used. Briefly, MNC were isolated from peripheral blood from healthy donors by the Hypaque-Ficoll gradient method. To differentiate the monocytes to macrophages cells were cultivated in Teflon bags in the presence of 2 ng/ml M-CSF in RPMI 1640 medium (endotoxin <0.01 EU/ml; Biochrom, Berlin, Germany) containing 100 U/ml penicillin, 100 μg/ml streptomycin, 2 mM L-glutamine and 4% heat-inactivated human serum type AB at 37 °C and 6% CO2. On day 6, cells were washed with PBS, detached by Trypsin-EDTA treatment and seeded at 1 × 10^6 cells/ml in complete medium in 96-well tissue culture dishes (Nunc, Wiesbaden, Germany). After stimulation of cells with various LP for 4 h, cell-free supernatants of duplicate samples were collected, pooled and stored at −20 °C until determination of cytokine content. Data shown are representative of at least three independent experiments.
# LP preparations were pre-warmed for 30 min at 37 °C, and added to the cultures at 20 μl per well. In inhibition experiments, different SALP were added directly after LPS/LP/LTA administration. […]
# [3] = system: Balb/C mice; assay: Serum cytokine response in mice after intraperitoneal inoculation; type: in vivo, mouse; conditions: 400 μg peptide i.p. immediately after 40 μg FSL-1, different site, n = 5
# Protocol: as §1
# To study if FSL-1 had pro-inflammatory cytokine-inducing activity, animals were intraperitoneally inoculated with 40 μg of FSL-1 resuspended in 200 μl of pyrogen-free saline. Blood samples were taken both at 1.5 h or 4 h after FSL-1 challenge to measure TNFα and IL-6 levels. For this purpose, mice were anesthetised, a blood sample was obtained by the retroorbital plexus and serum cytokine levels were measured using Quantikine Immunoassays kits (R&D systems, Minneapolis, USA) following manufacturer’s instructions. Differences between groups were statistically analyzed using the Mann-Whitney U test.
# To evaluate the ability of Aspidasept® to neutralize the FSL-1 induced pro-inflammatory cytokines, a group of animals received by the intraperitoneal route first 40 μg of FSL-1 and then 400 μg of the drug resuspended in 100 μl of pyrogen-free saline. This second injection was administered immediately after FSL-1 challenge at a different site of the peritoneum. TNFα and IL-6 levels were measured (see above) at 1.5 h or 4 h after challenge, respectively, coinciding with the peak of cytokine secretion, as determined in preliminary experiments.
# [4] = system: human MNCs; conditions: even at [LPS]:[Aspidasept] weight ratios as low as 1:1; cited from earlier work
# Source text: In this section, we first present in vitro data on the production of pro-inflammatory cytokines by human cells in response to LP or LTA from different origin and its neutralization by SALP. Then, we used a mouse model of acute toxemia to characterize the in vivo expression of those cytokines and to study if SALP can protect animals against lethal LP-induced sepsis.
# [5] = system: Pam3CSK4; assay: Isothermal titration calorimetry of peptide into Pam3CSK4; type: binding
# Protocol: (§2) Microcalorimetric measurements of peptide binding to selected LP, i.e., Pam3CSK4 and FSL-1 were performed on a MCS isothermal titration calorimeter (Microcal, Freiburg, Germany) at 37 °C, as previously described. The LP containing solutions (0.05 mM, prepared as described above) were dispensed into the microcalorimetric cell (volume 1.5 ml), and the peptide solutions (1 mM) were loaded into the syringe compartment (volume 0.1 ml). After temperature equilibration, the peptide was titrated in 3 μl aliquots every 5 min into the LP-containing cell under constant stirring and the heat of interaction after each injection measured by the MCS instrument was plotted versus time.
# [6] = system: FSL-1; assay: Isothermal titration calorimetry of peptide into FSL-1; type: binding; conditions: LP 0.05 mM, peptide 1 mM titrated in 3 μl portions every 5 min, 37 °C
# Protocol: as §2
sequence,measurement,setting,value
"GCKKYRRFRWKFKGKFWFWG [Aspidasept®, synthetic anti-LPS peptide (SALP), 20′mer, anti-septic therapeutic drug candidate]",survival of mice challenged with FSL-1,[1],significant survival benefit
same,inhibition of TNFα production,"[2]; stimulus LP SitC 1000 and 100 ng/ml, 10:1 excess of peptide, three independent measurements",strong inhibition
same,inhibition of LP-dependent TNFα secretion,"[2]; stimulus LP SitC, all tested concentrations, [LP]:[Pep] 1:10 and 1:100 weight%",almost totally abrogated
same,inhibition of FSL-1 induced TNFα stimulation in mice,"[3]; 1.5 h, p < 0.01",totally inhibited
same,reduction of FSL-1 induced IL-6 levels in mice,[3]; 4 h,slight reduction
same,inhibition of LPS-induced cytokine expression in human MNCs,[4],efficiently inhibits
same,ITC: Pam3CSK4:peptide interaction,"[5]; LP 0.05 mM, peptide 1 mM titrated in 3 μl portions every 5 min, 37 °C",weak exothermic reaction; also recorded: no clear thermal reaction
same,affinity of the peptide towards the LP,"[5]; Pam3CSK4, concluded from ITC",poor affinity
same,ITC: FSL-1:peptide interaction,[6],exothermic reaction with saturation kinetics; also recorded: considerable reaction with saturation characteristics
